Source: patent US8815891B2, “Tricyclic derivative or pharmaceutically acceptable salts thereof, preparation method thereof, and pharmaceutical composition containing the same” (Je Il Pharmaceutical Co., Ltd., priority 2008, dated 2014)
Structures can show the parent of a compound that is named as a salt. Where two headings read alike, the source gives them in different places.

Legend:
PARP-1 enzyme [1] = target: PARP-1 enzyme (Homo sapiens (Human), UniProt P09874); experiment: Poly(ADP-ribose)polymerase [PARP-1] enzyme inhibitory activity (Trevigen PARP Assay kit); assay type: biochemical; details: read-out: PARP-1 Inhibitory activity IC50
Sequence of PARP-1 enzyme (Homo sapiens (Human), UniProt P09874) (P09874 whole entry): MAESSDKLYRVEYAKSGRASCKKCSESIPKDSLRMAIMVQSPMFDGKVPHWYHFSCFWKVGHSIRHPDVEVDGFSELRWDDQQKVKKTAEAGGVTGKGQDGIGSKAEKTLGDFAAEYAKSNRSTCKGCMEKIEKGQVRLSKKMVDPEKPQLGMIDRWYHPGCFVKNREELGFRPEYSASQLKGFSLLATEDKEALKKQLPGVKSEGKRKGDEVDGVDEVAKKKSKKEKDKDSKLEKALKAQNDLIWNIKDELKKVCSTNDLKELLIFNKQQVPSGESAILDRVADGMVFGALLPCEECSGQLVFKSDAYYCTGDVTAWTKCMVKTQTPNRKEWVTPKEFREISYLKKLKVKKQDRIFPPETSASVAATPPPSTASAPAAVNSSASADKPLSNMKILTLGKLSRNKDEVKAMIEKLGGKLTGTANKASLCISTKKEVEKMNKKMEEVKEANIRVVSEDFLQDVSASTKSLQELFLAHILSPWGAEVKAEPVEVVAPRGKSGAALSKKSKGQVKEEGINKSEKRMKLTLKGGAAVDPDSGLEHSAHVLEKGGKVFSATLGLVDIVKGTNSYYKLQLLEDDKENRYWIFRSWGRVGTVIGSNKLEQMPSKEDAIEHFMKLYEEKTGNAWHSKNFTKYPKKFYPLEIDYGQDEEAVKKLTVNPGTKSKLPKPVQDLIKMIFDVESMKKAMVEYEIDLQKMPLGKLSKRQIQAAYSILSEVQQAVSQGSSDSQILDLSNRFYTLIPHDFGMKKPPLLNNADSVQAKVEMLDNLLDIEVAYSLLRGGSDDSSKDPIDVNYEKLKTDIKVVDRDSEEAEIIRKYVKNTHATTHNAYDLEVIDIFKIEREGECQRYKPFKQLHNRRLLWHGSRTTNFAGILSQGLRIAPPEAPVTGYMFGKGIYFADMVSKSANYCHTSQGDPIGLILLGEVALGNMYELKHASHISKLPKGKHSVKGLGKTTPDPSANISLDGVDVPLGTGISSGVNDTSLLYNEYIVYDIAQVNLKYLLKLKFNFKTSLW
In short: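 On histone-coated plates, PARP-1 (0.12 unit/well) reacted with compound for 30 min at 25 °C in a 2× cocktail of 1.95 mM NAD+, 50 μM biotinylated NAD+ and activated DNA (Tris pH 8.0, 25 mM MgCl2). Biotin-ribosylated histone was detected with streptavidin-HRP and TACS-Sapphire substrate, stopped with HCl and read at 450 nm.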

PARP-1 enzyme [2] = target: PARP-1 enzyme (Cricetulus griseus (Chinese hamster) (Cricetulus barabensis griseus), UniProt Q9R152); experiment: Intracellular PARP inhibitory activity (NAD(P)H released by MMS-treated CHO-K1 cells); assay type: cell-based
Sequence of PARP-1 enzyme (Cricetulus griseus (Chinese hamster) (Cricetulus barabensis griseus), UniProt Q9R152) (Q9R152 whole entry): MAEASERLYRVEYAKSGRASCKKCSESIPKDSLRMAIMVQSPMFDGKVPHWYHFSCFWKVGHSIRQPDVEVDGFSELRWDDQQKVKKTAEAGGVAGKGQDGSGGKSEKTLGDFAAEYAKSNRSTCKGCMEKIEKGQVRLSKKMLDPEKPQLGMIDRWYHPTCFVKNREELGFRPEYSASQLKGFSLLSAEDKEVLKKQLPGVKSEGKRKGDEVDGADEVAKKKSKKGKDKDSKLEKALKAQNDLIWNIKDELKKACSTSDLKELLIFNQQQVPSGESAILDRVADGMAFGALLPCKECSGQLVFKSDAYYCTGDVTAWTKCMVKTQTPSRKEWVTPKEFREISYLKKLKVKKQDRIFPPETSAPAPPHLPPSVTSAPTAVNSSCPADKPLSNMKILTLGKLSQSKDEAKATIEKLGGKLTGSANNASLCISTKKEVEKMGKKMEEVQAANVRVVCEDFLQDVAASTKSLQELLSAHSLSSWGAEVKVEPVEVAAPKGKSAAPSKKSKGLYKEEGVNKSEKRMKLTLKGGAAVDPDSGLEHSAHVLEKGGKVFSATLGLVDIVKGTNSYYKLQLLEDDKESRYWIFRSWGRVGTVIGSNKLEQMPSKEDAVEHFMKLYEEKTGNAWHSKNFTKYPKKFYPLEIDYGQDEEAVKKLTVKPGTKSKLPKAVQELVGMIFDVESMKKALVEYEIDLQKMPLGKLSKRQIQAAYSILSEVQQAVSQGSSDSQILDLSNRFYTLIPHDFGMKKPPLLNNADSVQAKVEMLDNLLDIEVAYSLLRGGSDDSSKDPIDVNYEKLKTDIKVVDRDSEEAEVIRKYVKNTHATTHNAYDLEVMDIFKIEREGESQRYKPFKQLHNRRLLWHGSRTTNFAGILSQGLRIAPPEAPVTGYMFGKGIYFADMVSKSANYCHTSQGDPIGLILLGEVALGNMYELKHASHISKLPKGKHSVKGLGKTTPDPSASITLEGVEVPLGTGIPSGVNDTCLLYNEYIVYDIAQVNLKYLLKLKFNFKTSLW
Protocol: In order to verify the ability of the compounds of the present invention to inhibit the PARP-1 enzyme activity, the amount of NAD(P)H accumulated on cell culture medium was measured.
The Chinese hamster ovary cells (CHO-K1) were cultured in RPMI1640 culture medium containing 10% fetal bovine serum (FBS). The cultured CHO-K1 cells were seeded into 96 well plate by 2.9×10^3 cells/well, and cultured for 16 hours under culture condition of 37° C., 5% CO2. After the culture, the cells were treated with the compounds of the Examples at varying concentrations, and cultured at 37° C. for 2 hours. […] The amount of […] released to the culture medium 3, 4, 5 hours after the treatment with MMS was quantified at 450 nm using Wallac EnVision™ (PerkinElmer Oy, Turku, Finland). The transference numbers of the compounds at varying concentrations according to the present invention are the average values obtained from four wells, and the results were calculated using regression analysis.
The Chinese hamster ovary cells (CHO-K1) were treated with the compounds at varying concentration according to the present invention, and the amount of NAD(P)H released into the culture medium 4 hours after the MMS treatment was quantified.

A549 cell line = experiment: Cell growth inhibition of cancer cell lines (SRB assay), A549; assay type: cell-based; details: for SN-38 PF50 / Temozolomide PF50: 2 μM compound; for SN-38 PF50: GI50 SN-38 alone / GI50 with compound; for Temozolomide PF50: GI50 temozolomide alone / GI50 with compound; for GI50: Homo sapiens, 72 hours
Protocol: (§1) The tests on cell growth inhibitory activity were performed with respect to A549 (US, ATCC), SK-OV-3 (Korea Research Institute of Chemical Technology; KRICT), HT-29 (US, ATCC), MCF-7 cell (US, ATCC), using Sulforhodamin-B <SRB> Assay (1989, US National Cancer Institute (NCI)) which was developed to measure the in vitro anti-cancer activity of the drug. […] The samples of the compounds of the Examples according to the present invention were used for the tests, and before the tests, the samples were dissolved in dimethylsulfoxide and diluted with the culture medium (RPMI 1640) to be used. The final concentration of the sample was varied in the range of 0.3˜100 μM. After the culture medium was removed from the 96 well plates, the diluted sample solution was added by 100 μl, and cultured in 37° C., 5% CO2 culture medium for 72 hours. The time zero (Tz) plates were collected at the time point of adding the sample. Upon completing the culture, the medium was removed from each well along with Tz plate, then cold 10% trichloroacetic acid (TCA) was added by 100 μl per well. The wells were left at 4° C. for 1 hour, so that the cells were fixed into the bottom of the plates. After the cells were fixed, the plates were rinsed with water five to six times to remove the remaining trichloroacetic acid solution, and moisture was completely dried at room temperature. The cells were dyed for 30 minutes by adding the dye solution in which 0.4% sulforhodamine-B was dissolved in 1% acetic acid solution, by 100 μl per dried wells. The above was rinsed again with 1% acetic acid solution five to six times to ensure that sulforhodamine-B which had not attached to the cells was removed. The plates were again dried at room temperature. 100 μl of 10 mM tris-buffer was then added to dissolve the dye, and the optical density (OD) at 520 nm was measured with the microplate reader. GI50 of the sample regarding cancer cell was calculated as explained below. Time zero (Tz), control value (C) and test value (T) were obtained, in which Tz corresponds to OD value of time at which the sample is applied and culture is started, C corresponds to OD value of the well which is cultured without treatment with the sample, and T corresponds to OD value of the well which is treated with the sample and then cultured. The degree of cell growth inhibition of the sample was measured using: If […] [Mathematical Formula 1]
(§2) Further, the ability of Examples 2, 42, 49, 52, 72, 74, 101 to increase growth inhibition effect of temozolomide and SN-38 at 2 μM was determined.

SK-OV-3 Cell line = experiment: Cell growth inhibition of cancer cell lines (SRB assay), SK-OV-3; assay type: cell-based; details: for SN-38 PF50 / Temozolomide PF50: 2 μM compound; for GI50: Homo sapiens, 72 hours
Protocol: as §1, §2

HT-29 Cell line = experiment: Cell growth inhibition of cancer cell lines (SRB assay), HT-29; assay type: cell-based; details: for SN-38 PF50 / Temozolomide PF50: 2 μM compound; for GI50: Homo sapiens, 72 hours
Protocol: as §1, §2

MCF-7 Cell line = experiment: Cell growth inhibition of cancer cell lines (SRB assay), MCF-7; assay type: cell-based; details: for SN-38 PF50 / Temozolomide PF50: 2 μM compound; for GI50: Homo sapiens, MCF7, 72 hours
Protocol: as §1, §2

[3] = PARP-1 enzyme, histone ribosylation, 450 nm

Row | Structure (SMILES) | IC50 (PARP-1 enzyme [1]) [nM] | IC50 (PARP-1 enzyme [2]) [nM] | IC50 (PARP-1 enzyme [1]; [3]) [nM] | further results
1 | CCN(CC)Cc1ccc2c3c(c(=O)[nH]c2c1)CCCN3 [Example 42, 8-[(Diethylamino)methyl]-1,2,3,4-tetrahydrobenzo[h][1,6]naphthyridine-5(6H)-one dihydrochloride] | 220 | 850 | – | SN-38 PF50 (A549 cell line): 1.6; Temozolomide PF50 (A549 cell line): 2.3; GI50 (A549 cell line): > 100000 nM; SN-38 PF50 (SK-OV-3 Cell line): 1.6; Temozolomide PF50 (SK-OV-3 Cell line): >2.1; GI50 (SK-OV-3 Cell line): > 100000 nM; SN-38 PF50 (HT-29 Cell line): 2.1; Temozolomide PF50 (HT-29 Cell line): >1.4; GI50 (HT-29 Cell line): 81000 nM; SN-38 PF50 (MCF-7 Cell line): 1.6; Temozolomide PF50 (MCF-7 Cell line): 1.6; GI50 (MCF-7 Cell line): 75000 nM
2 | O=c1[nH]c2ccc(OCCCCN3CCCCC3)cc2c2c1CCCN2 [Example 29, 9-[4-(Piperidine-1yl)butoxy]-1,2,3,4-tetrahydrobenzo[h][1,6]naphthyridine-5(6H)-one dihydrochloride] | 2850 | – | – | SN-38 PF50 (A549 cell line): 1.5; Temozolomide PF50 (A549 cell line): 2.0; GI50 (A549 cell line): > 100000 nM; SN-38 PF50 (SK-OV-3 Cell line): 1.5; Temozolomide PF50 (SK-OV-3 Cell line): >1.7; GI50 (SK-OV-3 Cell line): > 100000 nM; SN-38 PF50 (HT-29 Cell line): 1.5; Temozolomide PF50 (HT-29 Cell line): >1.2; GI50 (HT-29 Cell line): 91000 nM; SN-38 PF50 (MCF-7 Cell line): 2.2; Temozolomide PF50 (MCF-7 Cell line): 2.1; GI50 (MCF-7 Cell line): > 100000 nM
3 | CCCN(C)Cc1ccc2c3c(c(=O)[nH]c2c1)CCCN3 [Example 56, 8-[(Methyl(propyl)amino)methyl]-1,2,3,4-tetrahydrobenzo[h][1,6]naphthyridine-5(6H)-one dihydrochloride] | 180 | 470 | – | –
4 | COc1cc(CN)cc2[nH]c(=O)c3c(c12)NCCC3 [Example 109, 8-(Aminomethyl)-10-methoxy-1,2,3,4-tetrahydrobenzo[h][1,6]naphthyridine-5(6H)-one dihydrochloride] | 70 | 940 | – | –
5 | O=c1[nH]c2cc(CN3CCCCC3)ccc2c2c1CCCN2 [Example 48, 8-(Piperidine-1-ylmethyl)-1,2,3,4-tetrahydrobenzo[h][1,6]naphthyridine-5(6H)-one dihydrochloride] | 130 | 430 | – | –
6 | CCOc1ccc2[nH]c(=O)c3c(c2c1)NCCC3 [Example 20, 9-Ethoxy-1,2,3,4-tetrahydrobenzo[h][1,6]naphthyridine-5(6H)-one hydrochloride] | – | 1300 | 1540 | –
7 | COc1cc(CN2CCSCC2)cc2[nH]c(=O)c3c(c12)NCCC3 [Example 106, 10-Methoxy-8-(thiomorpholinomethyl)-1,2,3,4-tetrahydrobenzo[h][1,6]naphthyridine-5(6H)-one dihydrochloride] | 90 | 290 | – | –
8 | CCCOc1cc(CN)cc2[nH]c(=O)c3c(c12)NCCC3 [Example 114, 8-(Aminomethyl)-10-propoxy-1,2,3,4-tetrahydrobenzo[h][1,6]naphthyridine-5(6H)-one dihydrochloride] | 190 | 1920 | – | –
9 | CN(C)CCc1ccc2c3c(c(=O)[nH]c2c1)CCCN3 [Example 32, 8-[2-(Dimethylamino)ethyl]-1,2,3,4-tetrahydrobenzo[h][1,6]naphthyridine-5(6H)-one dihydrochloride] | 230 | 3160 | < 1000 | –
10 | O=c1[nH]c2cc(CN3CCCC3)ccc2c2c1CCCN2 [Example 44, 8-(Pyrrolidine-1-ylmethyl)-1,2,3,4-tetrahydrobenzo[h][1,6]naphthyridine-5(6H)-one dihydrochloride] | – | 340 | – | IC50 (PARP-1 enzyme [1]; dihydrochloride): 60 nM
11 | CCNCc1cc(OCC)c2c3c(c(=O)[nH]c2c1)CCCN3 [Example 104, 10-Etoxy-8-[(ethylamino)methyl]-1,2,3,4-tetrahydrobenzo[h][1,6]naphthyridine-5(6H)-one dihydrochloride] | – | 1650 | 60 | –
12 | O=c1[nH]c2ccc(OCCN3CCCCC3)cc2c2c1CCCN2 [Example 17, 9-[2-(Piperidine-1yl)ethoxy]-1,2,3,4-tetrahydrobenzo[h][1,6]naphthyridine-5(6H)-one dihydrochloride] | 460 | 1630 | < 1000 | –
13 | CCOc1cc(CN)cc2[nH]c(=O)c3c(c12)NCCC3 [Example 113, 8-(Aminomethyl)-10-etoxy-1,2,3,4-tetrahydrobenzo[h][1,6]naphthyridine-5 (6H)-one dihydrochloride] | – | 1430 | 100 | –
14 | CN(C)Cc1ccc2c3c(c(=O)[nH]c2c1)CCCN3C [Example 66, 8-[(Dimethylamino)methyl]-1-methyl-1,2,3,4-tetrahydrobenzo[h][1,6]naphthyridine-5(6H)-one dihydrochloride] | 90 | 320 | < 1000 | –
15 | CNCc1ccc2c3c(c(=O)[nH]c2c1)CCCN3 [Example 52, 8-[(Methylamino)methyl]-1,2,3,4-tetrahydrobenzo[h][1,6]naphthyridine-5(6H)-one dihydrochloride] | 70 | – | – | SN-38 PF50 (A549 cell line): 2.2; Temozolomide PF50 (A549 cell line): 1.5; GI50 (A549 cell line): > 100000 nM; SN-38 PF50 (SK-OV-3 Cell line): 1.4; Temozolomide PF50 (SK-OV-3 Cell line): >2.2; GI50 (SK-OV-3 Cell line): > 100000 nM; SN-38 PF50 (HT-29 Cell line): 1.4; Temozolomide PF50 (HT-29 Cell line): >1.3; GI50 (HT-29 Cell line): 90000 nM; SN-38 PF50 (MCF-7 Cell line): 1.1; Temozolomide PF50 (MCF-7 Cell line): 1.5; GI50 (MCF-7 Cell line): > 100000 nM
16 | COc1cc(CNC(C)(C)C)cc2[nH]c(=O)c3c(c12)NCCC3 [Example 87, 8-[(t-Butylamino)methyl]-10-methoxy-1,2,3,4-tetrahydrobenzo[h][1,6]naphthyridine-5(6H)-one dihydrochloride] | 610 | 820 | – | –
17 | CN(CCO)Cc1ccc2c3c(c(=O)[nH]c2c1)CCCN3 [Example 53, 8-{[(2-Hydroxyethyl)(methyl)amino]methyl}-1,2,3,4-tetrahydrobenzo[h][1,6]naphthyridine-5(6H)-one dihydrochloride] | 50 | 290 | – | –
18 | COCCOc1ccc2[nH]c(=O)c3c(c2c1)NCCC3 [Example 18, 9-(2-Methoxyethoxy)-1,2,3,4-tetrahydrobenzo[h][1,6]naphthyridine-5(6H)-one hydrochloride] | – | 3710 | 1520 | –
19 | CNCc1cc(OC)c2c3c(c(=O)[nH]c2c1)CCCN3 [Example 73, 10-Methoxy-8-[(methylamino)methyl]-1,2,3,4-tetrahydrobenzo[h][1,6]naphthyridine-5(6H)-one dihydrochloride] | 100 | 1390 | – | –
20 | COc1cc(CN2CCC(N3CCOCC3)CC2)cc2[nH]c(=O)c3c(c12)NCCC3 [Example 108, 10-Methoxy-8-[(4-morpholinopiperidine-1-yl)methyl]-1,2,3,4-tetrahydrobenzo[h][1,6]naphthyridine-5(6H)-one trihydrochloride] | 140 | 110 | – | –
